Laboratory results published in patent US20190083420A1, “METHODS OF USING (2R, 6R)-HYDROXYN[…] (2S, 6S)-HYDROXYN[…] THE TREATMENT OF DEPRESSION, ANXIETY, ANHEDONIA, FATIGUE, SUICIDAL IDEATION, AND POST TRAUMATIC STRESS DISORDERS” (The Uinited States of America, as represented by the …, priority 2016, published 2019).
Entries after “also recorded” stand apart in the source; their conditions may differ.

Experiments:
mice [1] = assay: Open field test (locomotor activity); type: in vivo; conditions: 1 hour after i.p. drug
Procedure: Mice were placed into individual open-field arenas (50 cm length×50 cm width×38 cm height; San Diego Instruments, San Diego, Calif., USA) for a 60-min habituation period. Mice were then injected with the respective drug and assessed for locomotor activity for another 60 min. Distance travelled was analyzed using TopScan v2.0 (CleverSys, Inc, Reston, Va., USA).

mice [2] = assay: Drug discrimination in ketamine-trained mice; type: in vivo; conditions: for response rate of overall lever pressing per sec: drug discrimination paradigm
Procedure: Mice were food restricted until they reached 85% of their initial body weight and were maintained at 85% throughout the duration of the experiment Animals were trained to lever press for food (20 mg sucrose pellets; TestDiet, St. Luis, Mo., USA) in standard two lever-operant conditioning chambers (Coulbourn Instruments, Whitehall, Pa., USA), under a fixed-ratio 5 of reinforcement (FR5) in daily 30-min sessions. When stable responding was succeeded over 3 consecutive sessions (average of 40 training sessions), mice were trained to discriminate ketamine (10 mg/kg) from saline (7.5 ml/kg) under a double alternation schedule (e.g., ketamine, ketamine, saline, saline). The subjects received either ketamine (10 mg/kg; i.p.) or saline (7.5 ml/kg) 15 minutes prior to the start of the 30-minute session. […] Drug discrimination test sessions were conducted when mice reached the following criteria: (1) first FR5 completed on the correct lever, and (2)≥85% correct lever responding over the entire session. During the test sessions mice were administered with saline (7.5 ml/kg), ketamine (10 mg/kg), phencyclidine (PCP; 3 mg/kg) or (2R,6R)-HNK (10 and 50 mg/kg). […] Recording of responses and pellet delivery were controlled and calculated by an automated computer system (Graphic State v3.1; Coulbourn Instruments, Whitehall, Pa., USA).

mTOR = assay: Western blot of synaptoneurosomes, mTOR and phosphorylated mTOR; type: in vivo, mice
Procedure: To purify synaptoneurosomes, mouse prefrontal cortex or hippocampus were dissected and homogenized in Syn-PER Reagent (ThermoFisher Scientific, Waltham, Mass., USA; Cat #87793) with 1× protease and phosphatase inhibitor cocktail (ThermoFisher Scientific, Waltham, Mass., USA; Cat #78440). The homogenate was centrifuged for 10 min at 1,200×g at 4° C. The supernatant was centrifuged at 15,000×g for 20 min. After centrifugation, the supernatant the pellet (synaptosomal fraction) was re-suspended and sonicated in N-PER Neuronal Protein Extraction Reagent (ThermoFisher Scientific, Waltham, Mass., USA; Cat #87792). For total homogenous tissue lysates, mouse prefrontal cortex or hippocampus were homogenized and sonicated in N-PER Neuronal Protein Extraction Reagent with 1× protease & phosphatase inhibitor cocktail) Protein concentration was determined via the BCA protein assay kit (ThermoFisher Scientific, Waltham, Mass., USA; Cat #23227).
For western blotting, equal amount of proteins (10-40 μg as optimal for each antibody) for each sample were loaded into NuPage 4-12% Bis-Tris gel for electrophoresis. Nitrocellulose membranes with transferred proteins were blocked with 5% milk in TBST (TBS+0.1% Tween-20) for 1 hour and kept with primary antibodies overnight at 4° C. The following primary antibodies were used: phospho-eEF2 (Cell Signaling Technology, Danvers, Mass., USA; Cat #2331), total eEF2 (Cell Signaling Technology, Danvers, Mass., USA; Cat #2332), phospho-mTOR (Cell Signaling Technology, Danvers, Mass., USA; Cat #2971), total mTOR (Cell Signaling Technology, Danvers, Mass., USA; Cat #2983), GluR1 (Cell Signaling Technology, Danvers, Mass., USA; […]), GluR2 (Cell Signaling Technology, Danvers, Mass., USA; Cat #13607), BDNF (Santa Cruz Biotechnology, Dallas, Tex., USA; Cat # sc-546), and GAPDH (Abcam, Cambridge, Mass., USA; Cat # ab8245). The next day, blots were washed three times in PBST and incubated with horseradish peroxidase conjugated anti-mouse or anti-rabbit secondary antibody (1:5000 to 1:10000) for 1 hour. After final three washes with TBST, bands were detected using enhanced chemiluminescence (ECL) with the Syngene Imaging System (G:Box ChemiXX9). After imaging, the blots then were incubated in the stripping buffer (ThermoFisher Scientific, Waltham, Mass., USA; Cat #46430) for 10-15 min at room temperature followed by three time washes with TBST. The stripped blots were washed in blocking solution for 1 hour and incubated with the primary antibody directed against total levels of the respective protein or GAPDH for loading control. Densitometric analysis of phospho- and total immunoreactive bands for each protein was conducted using Syngene's GenTools software Immunoreactivity was normalized to the saline treated control group for each protein.

male CD-1 mice = assay: Novelty-suppressed feeding (NSF); type: in vivo; conditions: i.p.
Source text: Male CD-1 mice (8-10 weeks old, Charles River Laboratories, Mass., USA) were housed in groups of four-five per cage with a constant 12-hour light/dark cycle (lights on/off at 07:00/19:00). Food and water were available ad libitum. Mice acclimatized to the new environment for seven days prior to the start of the experiments. For the whole-cell NMDA current electrophysiological recordings, male Sprague-Dawley rats (housed three per cage; Charles River, Wilmington, Mass.) were used. EPSC recording were done from rats at postnatal day 24-25. All experimental procedures were approved by the University of Maryland, Baltimore Animal Care and Use Committee and were conducted in full accordance with the National Institutes of Health Guide for the Care and Use of Laboratory Animals.
Mice were singly housed and food-deprived for twenty-four hours in freshly-made home-cages. Two normal chow diet pellets were placed on a square food platform (10×10 cm) in the center of an open-field arena (40×40 cm). […] The time needed for the mice to take a bite of food was recorded over a 10 min period by a trained observer blind to the treatment groups. After the test, the mice were returned to their home cage containing pre-weighed food pellets, and latency to bite the food as well as consumption was recorded for a period of 10 min.

mice [3] = assay: Chronic corticosterone-induced anhedonia, sucrose preference test; type: in vivo; conditions: single administration, measured after 24 hours
Procedure: For assessing the baseline sucrose preference, mice were singly housed for 24 hours and presented with two identical bottles containing either tap water or 1% sucrose solution. Following baseline sucrose measurement, mice were re-grouped housed (5 mice per cage) and treated for 4 weeks with corticosterone (25 μg/ml equivalent) given in water bottles. Prior to initiation of any behavioral measurements, animals were weaned off corticosterone treatment; 3 days corticosterone 12.5 μg/ml and 3 days corticosterone 6.25 μg/ml, followed by 1 week of complete withdrawal from the drug. Mice were subsequently singly-housed in freshly-made home cages and provided with two bottles containing either tap water or 1% sucrose solution. Twenty-four hours later, mice that developed anhedonia phenotype (<55% sucrose preference) were treated with saline or (2R,6R)-HNK (10 mg/kg) and sucrose preference measured after an additional 24 hours.

[4] = hippocampus, 1- or 24-hours post-injection, 10 mg/kg

Row | Compound | locomotor activity in the open-field test (mice [1]) | locomotor activity in the open-field test (mice [1]; listed as (R,S)-KET) | locomotor activity in the open-field test (mice [1]; listed as (R,S)-ketamine) | response rate of overall lever pressing per sec (mice [2]) | mTOR / phosphorylated mTOR synaptoneurosome levels (mTOR; [4]) | mTOR / phosphorylated mTOR synaptoneurosome levels (mTOR; hippocampus, 1- or 24-hours post-injection, 10 mg/kg, listed as (R,S)-ketamine) | mTOR / phosphorylated mTOR synaptoneurosome levels (mTOR; prefrontal cortex) | mTOR / phosphorylated mTOR synaptoneurosome levels (mTOR; prefrontal cortex, listed as (R,S)-KET) | antidepressant-like effect in novelty-suppressed feeding (latency to feed) (male CD-1 mice) | ketamine-associated discriminative stimulus (mice [2]; mice trained to discriminate ketamine (10 mg/kg) from saline) | reversal of chronic corticosterone-induced decrease in sucrose preference (mice [3]) | mTOR / phosphorylated mTOR synaptoneurosome levels (mTOR; hippocampus, 1- or 24-hours post-injection, 10 mg/kg, listed as (2R,6R)-hydroxynorketamine)
1 | CNC1(c2ccccc2Cl)CCCCC1=O (racemic) [ketamine, (R,S)-ketamine, reference compound] | not associated with sex differences in ketamine-induced hyperlocomotion | induced hyper-locomotor responses equally in both male and female mice | equally potent in inducing a hyper-locomotor response | not changed | not observed | did not alter synaptoneurosome levels of mTOR or phosphorylated mTOR | not observed | did not alter |  |  |  | 
2 | N[C@@]1(c2ccccc2Cl)CCC[C@@H](O)C1=O [(2R,6R)-HNK, (2R,6R)-2-amino-2-(2-chlorophenyl)-6-hydroxycyclohexanone] | did not induce any significant change in locomotion; also recorded: did not induce any stimulant-like hyperlocomotion |  |  | not changed | not observed |  | not observed; also recorded: did not alter |  | dose-dependent antidepressant-like effects; also recorded: dose-dependent antidepressant action | did not induce; also recorded: did not produce ketamine-related discrimination responses; also recorded: did not produce discriminative stimulus behaviors | reversed chronic corticosterone-induced decreases in sucrose preference; also recorded: reversed chronic corticosterone-induced anhedonia | did not alter synaptoneurosome levels of mTOR or phosphorylated mTOR
